Assays:
[1] = test system: MDA-MB-231 cells; experiment: Invasion assay (Boyden chamber, Matrigel); assay type: cell-based, human
Method: Invasion and Migration Assays. These assays were performed using BD BioCoat Matrigel Invasion Chamber (Cat. 354480, BD Biosciences, Bedford, Mass.). The undersurface of the inserts was coated with 30 μg/mL of fibronectin (Sigma, F2006) in PBS at 4° C. overnight. The inserts were washed with PBS once. Then, 0.5 mL of serum-free medium was separately added to the upper and lower chambers to equilibrate the Matrigel invasion chambers at 37° C., 5% CO2 for 2 hours. After starvated with serumfree DMEM or 4 hours, subconfluent MDA-MB-231 cells were trypsinized and resuspended in 0.1% FBS DMEM. 5×10^4 cells in 500 μL of 0.1% FBS DMEM containing various compounds or 1.0% DMSO (as control) were added to the upper chambers. 500 μL of 10% FBS DMEM containing the same concentration of the same compound or DMSO were added to the lower chambers. We incubated the invasion chambers for 3 hours at 37° C., 5% CO2. Non-invaded cells were removed from the upper chamber with a cotton swab. The invaded cells were fixed with 100% methanol and then stained with Hematoxylin Stain Harris Modified Method (Fisher, SH30-500D). The filters were washed with water 3 times. Filters were air dried and the invaded cells were counted in ten randomly selected microscopic fields (×200 magnification). The experiment was performed in triplicate per group and shown by mean±SE.
Whether the two active compounds affected invasion, adhesion and migration in cell culture in a concentration-dependent study was tested (FIGS. 2A, 2B). For invasion, the Transwell (or Boyden) chamber assay was used.^28 The assay uses a chamber with two compartments that are separated by a microporous membrane known as Matrigel consisting of components of the ECM such as collagen, laminin and fibronectin.^28
Invasive tumor cells degrade the Matrigel and migrate through the membrane to the lower compartment. […] FIGS. 2A and 2B show the effect of representative presently disclosed compounds on MDA-MB-231 metastasis. Percent inhibition of invasion, migration, and adhesion of MDA-MB-231 by compounds that bind to uPAR.

[2] = test system: MDA-MB-231 cells; experiment: Adhesion assay on fibronectin-coated wells; assay type: cell-based, human; conditions: MDA-MB-231
Method: Adhesion Assay. Quantitative cell adhesion assays were carried out in nontissue culture treated 96-well microtiter plates (Evergreen Scientific, Los Angeles, Calif.) which were coated with 15 μg/mL fibronectin (Sigma) for 1 h at room temperature. Fibronectin coated and uncoated control wells were blocked for 1 h with 3% heat denatured bovine serum albumin (BSA) at 37° C. Cells were split one day prior to the experiment to achieve a subconfluent culture. […] The wells were washed and the number of adherent cells was quantified by crystal violet staining at 570 nm.^19,20 The results were shown by means±SE.

[3] = test system: MDA-MB-231 cells; experiment: MTT proliferation assay; assay type: cell-based, human; conditions: MDA-MB-231
Method: (§1) Proliferation Assay. The procedure consisted of culturing cells at 37° C. in 10% FBS-DMEM medium containing various amounts of compound. 5 mM compound stock in 100% DMSO was 1:50 diluted in medium, filtered, and serially diluted in 96-well plate. Then seeded cells were incubated for 3 days. Viable cells were quantified by MTT assay at absorbance of 570 and 630 nm.
FIGS. 4A-4D show inhibition of MDA-MB-231 proliferation and mechanism of cell killing. To gain insight into the mechanism by which these compounds are inhibiting growth, a flow cytometry analysis with annexin V-FITC and PI staining was performed. The level of apoptotic cells in MDA-MB-231 was assessed by the percentage of Annexin V-positive/PI-negative cells present after exposure of MDAMB-231 cells to increasing concentration of IPR-69 for 24 h (FIG. 4B). At a concentration of 50 μM, IPR-69 induced significant apoptosis as evidenced by a 51% and 21% increase in apoptotic cells (Annexin V positive/PI-negative) and necrotic cells (Annexin V-positive/PI-positive), respectively. […] At a concentration of 50 μM, 26% of cells were necrotic (Annexin V positive/PI-positive), a 22% increase over control. 46% of cells were apoptotic (Annexin V positive/PInegative), compared with 4% of control.

[4] = test system: MMP-9; experiment: Gelatin zymography of MDA-MB-231 conditioned medium; assay type: cell-based, human
Method: Gelatin Zymography. MDA-MB-231 cells were treated with different concentrations of uPAR compounds in serum free medium for 24 h, the conditioned medium were collected, concentrated by Amicon Ultra centrifugal filter units (Millipore, #UFC500324), proteins were normalized and electrophoresed on sodium dodecyl sulfate (SDS)-polyacrylamide gels (10%) containing 1 mg/mL gelatin. After electrophoresis, the gel was washed twice in 50 mM Tris-HCl (pH 7.6) containing 5 mM CaCl2 and 2.5% Triton X-100 for 30 minutes at room temperature and incubated in buffer that contained 50 mM Tris-HCl (pH 7.6), 200 mM NaCl, 10 mM CaCl2 at 37° C. for 36 h. Then, the gels were stained with 0.05% Coomassie brilliant blue (CBB) and destained with 30% methanol in 10% acetic acid. Areas of gelatinolytic degradation appeared as transparent bands on the blue stained background of the gel. Data were quantified using Image J.
To degrade collagen within the ECM, malignant cells unleash a series of extracelullar proteases known as matrix metalloproteinases (MMPs).

[5] = test system: PANC-1 cells; experiment: MTT assay; assay type: cell-based, human
Method: as §1
Some of the compounds of the presently disclosed subject matter were tested in a MTT assay using a human pancreas carcinoma cell line PANC-1 (FIG. 12A). […] One of these compounds, IPR-737, was further tested in a MTT assay using MDA-MB-231, AsPC-1 (human pancreas adenocarcinoma cell line), and PANC-1 cells.

[6] = test system: PANC-1 cells; experiment: PANC-1 invasion assay; assay type: cell-based, human
[7] = test system: different signaling molecules; experiment: Western blot analysis of signaling; assay type: cell-based; conditions: n=1
Method: In light of the previously reported role of uPAR in signaling, the effect of IPR-993, IPR-737, IPR-81 and IPR-69 on signaling was studied by Western blot analysis (FIG. 23). A concentration-dependent study was carried out for IPR-737.

[8] = target: T1, uPAR (Homo sapiens, UniProt Q03405); experiment: Fluorescence polarization assay, displacement of AE147-FAM peptide from uPAR; assay type: binding; conditions: Table 1, assay not stated; for Ki: read-out: Ki
T1 construct: human uPAR (suPAR, amino acids 1-283) was expressed in stably transfected Drosophila S2 cells; made in house; host or cells: Drosophila S2 cells
T1 sequence (Q03405 23-305): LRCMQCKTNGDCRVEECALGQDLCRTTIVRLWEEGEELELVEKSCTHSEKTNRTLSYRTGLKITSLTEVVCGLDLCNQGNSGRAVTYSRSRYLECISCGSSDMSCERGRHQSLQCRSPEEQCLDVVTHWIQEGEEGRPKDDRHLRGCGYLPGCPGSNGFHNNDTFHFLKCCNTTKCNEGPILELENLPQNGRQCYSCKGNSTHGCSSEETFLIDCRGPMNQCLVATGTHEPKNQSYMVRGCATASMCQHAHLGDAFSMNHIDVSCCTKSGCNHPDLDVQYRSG
Method: Fluorescence Polarization Assay. The fluorescence polarization assay used fluorescent AE147-FAM peptide. uPAR was titrated against the fluorescent AE147-FAM peptide and data were fit to a sigmoidal dose-dependent curve as the FP value increases to determine the Kd of binding using Sigmaplot (Systat Software Inc., CA). Inhibitor screens were carried out in triplicates using 500 nM uPAR, 100 nM AE147-FAM, and inhibitor concentrations ranging from 0.78 μM to 100 μM in 50 μL volumes in black BD Falcon 384-well microplate. […] Polarized fluorescence intensities were measured immediately following addition of inhibitors to the protein-peptide mix at room temperature on an EnVision® Multilabel Plate Readers (PerkinElmer) with excitation and emission wavelengths of 485 nm and 530 nm, respectively.
Cloning, Expression and Purification of uPAR. uPAR was successfully cloned, expressed and purified. From 1 L of culture, nearly 12 mg of protein was expressed, which will be sufficient to conduct the experiments disclosed herein. Briefly, a truncated, soluble form of human uPAR (suPAR, amino acids 1-283) was expressed in stably transfected Drosophila S2 cells using the Drosophila Expression System (Invitrogen). suPAR was obtained by a two-step purification process. The conditioned culture medium was filtered (0.45 μm) and loaded onto a DEAE Sephadex column equilibrated with 20 mM Tris (pH 7.4). The protein was eluted with a gradient of 0-1 M NaCl in 20 mM Tris (pH 7.4). suPAR containing fractions were then pooled, concentrated, and filtered prior to RP-HPLC using a semi-preparative (10×25 cm) C8 column. A 1 mL aliquot of the concentrated protein was loaded onto the column at initial gradient conditions of 95% eluent A and 5% eluent B, where eluent A was 0.1% TFA/100% H2O and eluent B was 70:30 acetonitrile/[…]. The protein elutes using a gradient of 5% eluent A to 95% eluent B over 46 minutes at a flow rate of 4 mL/min. Under these conditions, the protein eluted as a single sharp peak (tR=29 min). […] Surface plasmon resonance confirmed that the purified uPAR was capable of binding to uPA. The identity of the 60 kDa band was established by immunoblot (not shown).
The design of a fluorescent probe was guided by the three-dimensional structure of uPAR in complex with peptide AE147.^27 As this peptide binds at the same site that is occupied by the growth factor-like domain of uPA, it provides the basis for the development of a competition assay to assess binding to this site. Flurescein was introduced to the N-terminus of AE147.
All 210 compounds were screened at initial concentration of 50 μM for displacement of AE147-FAM peptide. Eleven compounds gave polarization readings that were five times that of the standard deviation of the control peptide (FIG. 1B). Secondary concentration-dependent study for these eleven compounds was performed.
The resulting inhibition curves were used to determine an inhibition constant, Ki, for each.

[9] = target: CYP2C9 (Homo sapiens, UniProt P11712); experiment: Fluorescence-based CYP2C9 inhibition assay; conditions: 5 μM
Chain of CYP2C9 (P11712 whole entry): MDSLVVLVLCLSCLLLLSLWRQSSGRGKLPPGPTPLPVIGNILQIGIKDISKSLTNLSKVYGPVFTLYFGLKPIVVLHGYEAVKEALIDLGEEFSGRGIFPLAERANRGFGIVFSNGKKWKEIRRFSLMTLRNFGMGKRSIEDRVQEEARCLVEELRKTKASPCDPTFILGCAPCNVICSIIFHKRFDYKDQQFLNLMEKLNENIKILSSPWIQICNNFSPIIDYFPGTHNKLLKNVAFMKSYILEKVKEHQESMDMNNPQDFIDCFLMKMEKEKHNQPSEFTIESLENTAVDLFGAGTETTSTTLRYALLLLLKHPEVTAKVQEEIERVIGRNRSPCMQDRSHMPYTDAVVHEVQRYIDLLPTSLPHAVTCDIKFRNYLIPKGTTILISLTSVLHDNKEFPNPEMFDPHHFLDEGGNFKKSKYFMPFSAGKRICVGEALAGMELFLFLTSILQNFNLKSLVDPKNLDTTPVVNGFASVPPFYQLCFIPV
Method: CYP metabolism was measured using a fluorescence-based assay designed by Cohen et al.,^41 recently implemented by Invitrogen (Carlsbad, Calif.).

CCCCCCOc1cccc(N2C(=O)C(O)=C(C(=O)c3ccccc3)C2c2ccc(CC)cc2)c1 (stereo not drawn) [IPR-993]
cell invasion [1]: inhibition of activity with increasing concentrations of compound | cell adhesion [2]: some activity | cell proliferation / viability (MTT, words) [3]: inhibited cell viability | MMP-9 activity in gelatin zymography [4]: did not appear to demonstrate impairment of MMP-9 activity | cell proliferation / viability (MTT, words) [5]: inhibited cell viability | cell viability in the PANC-1 invasion assay [6]: little decrease in cell viability | PANC-1 invasion ([6]; increasing concentrations): inhibition of activity with increasing concentrations of compound | effect on signaling molecules [7]: did not seem to be much of an effect

COc1ccccc1C(CCNCc1ccccc1)c1ccc2c(c1)OCO2 (stereo not drawn) [IPR-022]
IC50 [8]: 24.2 µM | Ki [8]: 7.3 µM

c1ccc(CNCCC(Cc2ccccc2)c2ccc3c(c2)OCO3)cc1 (stereo not drawn) [IPR-021]
IC50 [8]: 58.7 µM | Ki [8]: 17.9 µM

COc1ccc(N2C(=O)CCC(C(=O)Nc3ccc(OC)c(Cl)c3)C2c2ccc(OC)c(OC)c2)cc1 (stereo not drawn) [IPR-108]
IC50 [8]: 42 µM | Ki [8]: 12.8 µM

Nc1ccc(S(=O)(=O)Nc2ccnn2-c2ccccc2)cc1 [sulphaphenazole, reference compound]
inhibition of CYP2C9 [9]: approximately 69%
